Reference: PubChem BioAssay AID2060627 (Molecular Pharmacology Branch, DTP, NCI, 2025)

System: 156681-154-R-J1-PDC complex spheroid viability
Experiment: Anticancer human tumor 156681-154-R-J1-PDC patient-derived melanoma cell line growth inhibition [CLK]
Conditions: for IC50: curve of first compound; for viability, T/C: stronger effect = lower value
How it was run: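 Multi-cell-type spheroids combined patient-derived tumor cells with HUVEC endothelial cells and human mesenchymal stem cells. Paired agents were dosed in half-log steps down from about clinical Cmax, or from 10 microM where Cmax was unknown.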
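Note: spheroids exposed to the agents for seven days.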
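Throughout, for viability, T/C: 100% = DMSO vehicle control viability.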

IC50 (second compound 0.0316 µM): > 10 µM
IC50 (second compound 0.1 µM): > 10 µM
IC50 (second compound 0.316 µM): 5.09 µM
IC50 (second compound 1 µM): < 0.0316 µM
IC50 (second compound 3.16 µM): < 0.0316 µM
IC50 (second compound 10 µM): < 0.0316 µM
Structure (SMILES): C=CC(=O)N1CCN(c2nc(=O)n(-c3c(C)ccnc3C(C)C)c3nc(-c4c(O)cccc4F)c(F)cc23)C(C)C1 (configuration not stated) + CNC(=O)c1ccc(Nc2nc(OC3CCCC3)c3c(-c4ccc5nc(C)oc5c4)c[nH]c3n2)c(OC)c1
viability, T/C (second compound 0.0316 µM, first compound 0.0316 µM): 83.4%
viability, T/C (second compound 0.0316 µM, first compound 0.1 µM): 105%
viability, T/C (second compound 0.0316 µM, first compound 0.316 µM): 91.4%
viability, T/C (second compound 0.0316 µM, first compound 1 µM): 106%
viability, T/C (second compound 0.0316 µM, first compound 3.16 µM): 129%
viability, T/C (second compound 0.0316 µM, first compound 10 µM): 82.7%
viability, T/C (second compound 0.1 µM, first compound 0.0316 µM): 47.1%
viability, T/C (second compound 0.1 µM, first compound 0.1 µM): 67.9%
viability, T/C (second compound 0.1 µM, first compound 0.316 µM): 71.1%
viability, T/C (second compound 0.1 µM, first compound 1 µM): 58.5%
viability, T/C (second compound 0.1 µM, first compound 3.16 µM): 70.6%
viability, T/C (second compound 0.1 µM, first compound 10 µM): 36%
viability, T/C (second compound 0.316 µM, first compound 0.0316 µM): 61.1%
viability, T/C (second compound 0.316 µM, first compound 0.1 µM): 71.6%
viability, T/C (second compound 0.316 µM, first compound 0.316 µM): 72.3%
viability, T/C (second compound 0.316 µM, first compound 1 µM): 71.2%
viability, T/C (second compound 0.316 µM, first compound 3.16 µM): 65.6%
viability, T/C (second compound 0.316 µM, first compound 10 µM): 27.2%
viability, T/C (second compound 1 µM, first compound 0.0316 µM): 51.9%
viability, T/C (second compound 1 µM, first compound 0.1 µM): 51%
viability, T/C (second compound 1 µM, first compound 0.316 µM): 36.9%
viability, T/C (second compound 1 µM, first compound 1 µM): 52.3%
viability, T/C (second compound 1 µM, first compound 3.16 µM): 49%
viability, T/C (second compound 1 µM, first compound 10 µM): 14.8%
viability, T/C (second compound 3.16 µM, first compound 0.0316 µM): 35%
viability, T/C (second compound 3.16 µM, first compound 0.1 µM): 40.4%
viability, T/C (second compound 3.16 µM, first compound 0.316 µM): 33.4%
viability, T/C (second compound 3.16 µM, first compound 1 µM): 44.2%
viability, T/C (second compound 3.16 µM, first compound 3.16 µM): 40.1%
viability, T/C (second compound 3.16 µM, first compound 10 µM): 23.4%
viability, T/C (second compound 10 µM, first compound 0.0316 µM): 41.6%
viability, T/C (second compound 10 µM, first compound 0.1 µM): 30.6%
viability, T/C (second compound 10 µM, first compound 0.316 µM): 37.4%
viability, T/C (second compound 10 µM, first compound 1 µM): 36.3%
viability, T/C (second compound 10 µM, first compound 3.16 µM): 30.9%
viability, T/C (second compound 10 µM, first compound 10 µM): 12.4%
